Measurements: article PMC5298231, “The Malaria Parasite's Lactate Transporter PfFNT Is the Target of Antiplasmodial Compounds Identified in Whole Cell Phenotypic Screens” (PLoS Pathogens, 2017)

Test system: erythrocytes infected with 3D7 trophozoites
Format: cell-based, Plasmodium falciparum

SMILES: COc1ccc2c(c1)OC(O)(C(F)(F)C(F)(F)F)CC2=O (stereo not drawn) [MMV007839]
- Intracellular NADH level, treated vs untreated (6 μM): decreased
- Intracellular orotate level, treated vs untreated (6 μM): decreased
- Intracellular orotidine-5-phosphate level, treated vs untreated (6 μM): decreased
- Intracellular pyruvate level, treated vs untreated (6 μM): significant elevation
- Intracellular sn-glycerol-3-phosphate level, treated vs untreated (6 μM): significant elevation
- Increase in lactate abundance in treated relative to untreated infected erythrocytes (6 μM, at each time point (1 h, 3 h, 6 h)): 6 fold
- 1-3 (2-3)-Bisphopshateglycerate, Average (1hr): 0.8283
- 2-Hydroxyglutarate, Average (1hr): -0.2432
- 2-Ketoglutarate, Average (1hr): -0.436
- 3-Phoshoglycerate, Average (1hr): 0.004248
- 3-Phospho-serine, Average (1hr): -0.2778
- 4-Aminobutanoate, Average (1hr): 1.193
- 5-Phosphoribosyl-Pyrophosphate, Average (1hr): 0.3507
- 6-Phosphogluconate, Average (1hr): -0.04985
- ADP, Average (1hr): -0.09347
- AMP, Average (1hr): 0.1805
- ATLS, Average (1hr): 0.06136
- ATP, Average (1hr): -0.05715
- Acetyl-CoA, Average (1hr): -0.4647
- Acetyl-L-alanine, Average (1hr): 0.1907
- Adenine, Average (1hr): -0.6208
- Arginine, Average (1hr): 0.574
- Asparagine, Average (1hr): 0.04802
- Aspartate, Average (1hr): 0.001665
- CDP, Average (1hr): -0.01089
- CDP-ethanolamine, Average (1hr): 0.2765
- CMP, Average (1hr): 0.1684
- CTP, Average (1hr): -0.2804
- Cholesteryl sulfate, Average (1hr): -0.2972
- Citrate, Average (1hr): -0.1229
- CoA, Average (1hr): -0.4384
- Cyclic AMP, Average (1hr): -0.8135
- Cytidine, Average (1hr): -0.7749
- DALT, Average (1hr): -0.5028
- DEVG, Average (1hr): 0.001555
- DGLA, Average (1hr): -0.4525
- DLS, Average (1hr): -0.423
- Deoxycytidine, Average (1hr): 1.92
- Dihydroorotate, Average (1hr): -0.5278
- ESFG, Average (1hr): 0.4045
- EVGG, Average (1hr): 0.01776
- Erythrose 4-Phosphate, Average (1hr): -0.3514
- FAD, Average (1hr): -0.08791
- FMN, Average (1hr): -0.2425
- Farnesyl diphosphate, Average (1hr): -0.0002912
- Folate, Average (1hr): -0.2316
- Fructose-1-6-Bisphosphate, Average (1hr): 1.122
- Fructose-6-Phosphate, Average (1hr): 0.08818
- GDP, Average (1hr): -0.6846
- GDP-mannose, Average (1hr): 0.01571
- GMP, Average (1hr): -1.125
- GTP, Average (1hr): -0.5732
- Geranylgeranyl pyrophosphate, Average (1hr): -0.5786
- Glucono-1-4-Lactone, Average (1hr): 1.593
- Glucose-6-Phosphate, Average (1hr): -0.1863
- Glutamate, Average (1hr): 0.1005
- Glutamine, Average (1hr): 0.7703
- Glutathione Disulfide, Average (1hr): 0.1943
- Glutathione, Average (1hr): -0.1919
- Glyceraldehyde 3-Phosphate, Average (1hr): -0.7606
- Glycerone Phosphate, Average (1hr): 0.5926
- HLD, Average (1hr): -0.3486
- HVDD, Average (1hr): -0.6691
- Histidine, Average (1hr): 0.5758
- Homoserine, Average (1hr): 0.3097
- Hydroxy-L-proline, Average (1hr): 0.2443
- Hypoxanthine, Average (1hr): 0.3704
- IDP, Average (1hr): -0.1758
- IMP, Average (1hr): -0.02277
- Inosine, Average (1hr): 0.5137
- Isoleucine, Average (1hr): 0.3056
- LD, Average (1hr): 0.3825
- Lactate, Average (1hr): 2.358
- Leucine, Average (1hr): 0.1553
- Lysine, Average (1hr): 1.68
- Malate, Average (1hr): 0.1358
- Mannitol, Average (1hr): 0.0108
- Methionine, Average (1hr): 0.2615
- Myristic acid, Average (1hr): 0.2261
- N-Acetyl-glutamate, Average (1hr): -0.007377
- N-Carbamoyl-L-Aspartate, Average (1hr): -1.378
- NAD+, Average (1hr): 0.03204
- NADH, Average (1hr): -1.36
- NADP+, Average (1hr): -0.2617
- Ornithine, Average (1hr): 0.2172
- Orotate, Average (1hr): -1.216
- Orotidine 5-Phosphate, Average (1hr): -1.5
- Orotidine, Average (1hr): -0.4366
- PAEF, Average (1hr): -0.4364
- PD, Average (1hr): 0.2765
- PDAV, Average (1hr): 0.344
- PE, Average (1hr): 1.21
- PEE, Average (1hr): 0.2418
- PHF, Average (1hr): 1.069
- PPVQ, Average (1hr): 0.02129
- PVNF, Average (1hr): -0.3384
- PVQ, Average (1hr): 0.8749
- PVQA, Average (1hr): -0.7385
- Pantothenate, Average (1hr): -0.01312
- Phenylalanine, Average (1hr): 0.1979
- Phosphoenolpyruvate, Average (1hr): 0.299
- Pipecolate, Average (1hr): 0.4539
- Proline, Average (1hr): 0.1646
- Pyridoxine, Average (1hr): 0.1656
- Pyruvate, Average (1hr): 1.42
